Assay results: PMC9653995, “New Positive TRPC6 Modulator Penetrates Blood–Brain Barrier, Eliminates Synaptic Deficiency and Restores Memory Deficit in 5xFAD Mice” (International Journal of Molecular Sciences, 2022)

What was measured:
[1] = system: hippocampal slices from 8-month-old 5xFAD mice; assay: LTP induction (HFS) in hippocampal Schaffer collateral-CA1 synapses of brain slices, fEPSP recording; assay type: cell-based, mouse; settings: 100 nM, normalized to baseline, mean ± SEM
Procedure: Long-term potentiation (LTP) is considered a cellular mechanism for long-term memory. LTP deficits have been reported in AD mouse models including 5xFAD mice. We examined whether C20 could improve synaptic plasticity in hippocampal slices of 5xFAD mice. LTP was induced in hippocampal Schaffer collateral-CA1 synapses by high-frequency stimulation (HFS).
Mouse transcardial perfusion was performed with 0–2 °C of holding buffer containing (in mM): 124 NaCl, 2.5 KCl, 24 NaHCO3, 1.2 NaH2PO4, 5 HEPES, 0.5 CaCl2*2H2O, 10 MgCl2*7H2O, 3 Na-pyruvate, and 12.5 D-glucose. […]
After incubation, the slices were placed in a recording chamber and perfused with a constant flow of recording buffer saturated with carbogen. […] Field excitatory postsynaptic potentials (fEPSPs) were recorded from CA1 stratum radiatum in recording buffer (124 mM NaCl, 2.5 mM KCl, 24 mM NaHCO3, 1.2 mM NaH2PO4, 5 mM HEPES, 2 mM CaCl2*2H2O, 0.8 mM MgCl2*7H2O, and 12.5 mM D-glucose) using borosilicate glass microelectrodes (300–400 kΩ) filled with recording buffer. […] Electrophysiological field responses were amplified and controlled using a Multiclamp 700B (Molecular Devices, Sunnyvale, CA, USA), digitized by Digidata 1440A (Molecular Devices, USA) and analyzed by pClamp 10.6 (Axon Instruments, Union City, California, USA). […] The amplitude and slope of the rising phase of EPSP at a level of 20–80% of the peak amplitude were measured. […]

TRPC3 = settings: cited from earlier work

## COc1cc2c(cc1OC)C(c1cc3ccccc3oc1=O)=NC(C)(C)C2 [C20, 3-(3-,4-Dihydro-6,7-dimethoxy-3,3-dimethyl-1-isoquinolinyl)-2H-1-benzopyran-2-one]
[1]; 8-month-old 5xFAD slices, 5xFAD alone 115.5 ± 3.0%
  average fEPSP slope 30–40 min after HFS: 149.4 ± 9.7%
[1]; WT slices, WT alone 168.7 ± 4.8%
  average fEPSP slope 30–40 min after HFS: 161.4 ± 9.6%
TRPC3
  activation of TRPC3: does not activate TRPC3
